For the first assay, the system named is greenhouse red spider mite (Tetranychus urticae). The experiment in a line: Tetranychus urticae spray test, OP-resistant (TETRUR), bean leaf disks. It is filed as in vivo. As to conditions: Tetranychus urticae, foliar, 144 h, application rate 500 g/ha, after 6 days; read-out: efficacy (spider mites killed). As to the method: After 6 days, the effect in % is determined.
Take `Cc1cc(F)c(/N=C2\SCC(=O)N2C)cc1[S+]([O-])CC(F)(F)F` (centres unmarked) [Ib-134]: the pest or weed control at 500 g/ha was 90%.
Still for that read-out and setting: next, `O=C1CS/C(=N\c2cc(SCC(F)(F)F)c(Cl)cc2Cl)N1C1CC1` [Ia-196]: 90%; `[O-][S+](CC(F)(F)F)c1cc(/N=C(\NCCc2ncc(C(F)(F)F)cc2Cl)C2CC2)c(Cl)cc1Cl` (centres unmarked) [Ib-130]: 100%.
On to `CN/C(=N\c1cc([S+]([O-])CC(F)(F)F)c(Cl)cc1Cl)c1cccnc1` (centres unmarked) [Ib-95], for which the pest or weed control at 500 g/ha came to 100%.
The same measure, in the same setting: next, `N#CC/C(N)=N/c1cc(SCC(F)(F)F)c(Cl)cc1Cl` [Ia-173]: 90%; `Cc1cc(Cl)c(SCC(F)(F)F)cc1/N=C(\N)C(F)(F)F` [Ia-76]: 100%.
Same read-out and setting: for `Cc1cc(F)c(/N=C2\CCCCN2C)cc1SCC(F)(F)F` [Ia-90] the value was 80%.
The same measure, in the same setting: for `Cc1cc(F)c(/N=C/N(C)C)cc1[S+]([O-])CC(F)(F)F` (centres unmarked) [Ib-128] the value was 90%; for `CN/C(=N\c1cc(SCC(F)(F)F)c(Cl)cc1Cl)c1cccnc1` [Ia-136], 100%; for `Cc1cc(Cl)c(/N=C2\SCC(=O)N2CC(F)(F)F)cc1SCC(F)(F)F` [Ia-275], 100%.
For the molecule `Cc1cc(Cl)c(SCC(F)(F)F)cc1/N=C(\N)c1ccccn1` [Ia-49], the pest or weed control at 500 g/ha worked out at 100%.
Same read-out and setting: next, `CN(C)/C(=N/c1cc([S+]([O-])CC(F)(F)F)c(Cl)cc1F)C(F)(F)F` (centres unmarked) [Ib-32]: 100%; `CN/C(=N\c1cc([S+]([O-])CC(F)(F)F)c(Cl)cc1Cl)c1ccc(C(F)(F)F)nc1` (centres unmarked) [Ib-144]: 90%.
Same read-out and setting: for `CN/C(=N/c1cc(SCC(F)(F)F)c(Br)cc1Br)C(F)(F)F` [Ia-37] the value was 100%; for `Cc1cc(F)c(/N=C(/c2cccnc2)N(C)C)cc1SCC(F)(F)F` [Ia-59], 90%; for `CN(C)/C(=N/c1cc(SCC(F)(F)F)c(Br)cc1Br)C(F)(F)F` [Ia-32], 100%.
On the same count and under the same terms, next, `Cc1cc(Cl)c(/N=C(\N)C(F)F)cc1SCC(F)(F)F` [Ia-48]: 100%; `Cc1ccc(/N=C(/N(C)C)C(F)(F)F)cc1SCC(F)(F)F` [Ia-222]: 100%; `CN/C(=N\c1cc([S+]([O-])CC(F)(F)F)c(C)cc1C)c1ccc(Cl)cc1` (centres unmarked) [Ib-100]: 100%.
`Cc1cc(F)c(/N=C(\N)C2CCCCC2)cc1SCC(F)(F)F` [Ia-169]: the pest or weed control at 500 g/ha turned out to be 90%.
Regarding `CN1CCC/C1=N\c1cc(SCC(F)(F)F)c(Cl)cc1Cl` [Ia-68], the pest or weed control at 500 g/ha is 90%.
Same read-out and setting: next, `Cc1cc(Cl)c(SCC(F)(F)F)cc1/N=C(\N)C1CC1` [Ia-102]: 90%; `Cc1cc(Cl)c(SCC(F)(F)F)cc1/N=C(\N)c1cnccn1` [Ia-234]: 100%.
On the same count and under the same terms, next, `FC(F)(F)CN/C(=N\c1cc(SCC(F)(F)F)c(Cl)cc1Cl)C1CC1` [Ia-153]: 100%; `Cc1cc(F)c(/N=C(\NC2CC2)C2CC2)cc1SCC(F)(F)F` [Ia-108]: 80%.
For `Cc1cc(F)c(/N=c2\scc(C3(Cl)CC3)n2CC(F)(F)F)cc1[S+]([O-])CC(F)(F)F` (centres unmarked) [Ib-172], the pest or weed control at 500 g/ha amounted to 90%.
The same measure, in the same setting: next, `N/C(=N\c1cc(SCC(F)(F)F)c(Cl)cc1Cl)C1(Cl)CC1` [Ia-123]: 100%.
The same measure, in the same setting: next, `COc1cc(C)c(SCC(F)(F)F)cc1/N=C(\N)C1(Cl)CC1` [Ia-255]: 90%.
The same measure, in the same setting: for `Cc1cc(F)c(/N=C(\N)C(C)C)cc1SCC(F)(F)F` [Ia-225] the value was 100%; for `CN/C(=N/c1cc(SCC(F)(F)F)c(C)cc1F)c1ccc(C(F)(F)F)nc1` [Ia-159], 90%.
In the case of `CCN/C(=N\c1cc(SCC(F)(F)F)c(C)cc1F)c1cccnc1` [Ia-151], the pest or weed control at 500 g/ha amounted to 100%.
The same measure, in the same setting: next, `C#CCN/C(=N\c1cc(SCC(F)(F)F)c(C)cc1F)C1CC1` [Ia-249]: 100%.
As to `CN/C(=N/c1cc([S+]([O-])CC(F)(F)F)c(C)cc1F)c1ccccc1C(F)(F)F` (centres unmarked) [Ib-148], the pest or weed control at 500 g/ha turned out to be 100%.
For the molecule `COC/C(N)=N/c1cc(SCC(F)(F)F)c(C)cc1F` [Ia-82], the pest or weed control at 500 g/ha amounted to 100%.
`CN(C)/C(=N\c1cc(SCC(F)(F)F)c(Cl)cc1Cl)C(F)(F)F` [Ia-57]: the pest or weed control at 500 g/ha is 100%.
Same read-out and setting: next, `Cc1cc(F)c(/N=C(/c2ccc(Cl)cc2)N(C)C)cc1[S+]([O-])CC(F)(F)F` (centres unmarked) [Ib-73]: 90%.
Same read-out and setting: for `Cc1cc(C)c([S+]([O-])CC(F)(F)F)cc1/N=C(/c1ccc(Cl)nc1)N(C)C` (centres unmarked) [Ib-133] the value was 90%.
Same read-out and setting: for `COc1cc(C)c(SCC(F)(F)F)cc1/N=C(/N)C(F)(F)F` [Ia-236, 2,2,2-Trifluoro-N′-{2-methoxy-4-methyl-5-[(2,2,2-trifluoroethyl)sulfanyl]phenyl}ethanimidamide] the value was 100%.
Turning to `Cc1cc(F)c(/N=C(\N)c2ccncn2)cc1SCC(F)(F)F` [Ia-42], the pest or weed control at 500 g/ha stood at 100%.
On to `Cc1cc(C)c([S+]([O-])CC(F)(F)F)cc1/N=C(/c1ccccc1)N(C)C` (centres unmarked) [Ib-126], for which the pest or weed control at 500 g/ha stood at 100%.
On the same count and under the same terms, next, `Cc1cc(Cl)c(/N=C(\N)C(F)(F)C(F)(F)Cl)cc1SCC(F)(F)F` [Ia-30]: 100%; `Cc1cc(C)c([S+]([O-])CC(F)(F)F)cc1/N=C(\NCC(F)(F)F)C1CCC1` (centres unmarked) [Ib-142]: 90%; `Cc1cc(F)c(/N=c2\scc(C3(Cl)CC3)n2CC(F)(F)F)cc1SCC(F)(F)F` [Ia-276]: 100%.
On the same count and under the same terms, next, `Cc1cc(F)c(/N=C(\N)C2(Cl)CC2)cc1[S+]([O-])CC(F)(F)F` (centres unmarked) [Ib-22]: 100%; `Cc1cc(F)c(/N=C(\c2ccccc2F)N(C)C)cc1SCC(F)(F)F` [Ia-147]: 100%; `N/C(=N\c1cccc(SCC(F)(F)F)c1)c1ccc(Cl)nc1` [Ia-107]: 90%.
In the case of `CN/C(=N\c1cc([S+]([O-])CC(F)(F)F)c(C)cc1F)c1cccc(Cl)c1` (centres unmarked) [Ib-76], the pest or weed control at 500 g/ha amounted to 100%.
Still for that read-out and setting: next, `CN/C(=N\c1cc(SCC(F)(F)F)c(C)cc1C)c1ccccn1` [Ia-214]: 100%; `Cc1cc(F)c(/N=C(\c2ccc(F)cc2)N(C)C)cc1[S+]([O-])CC(F)(F)F` (centres unmarked) [Ib-60]: 90%; `CN(C)/C(=N\c1cc(SCC(F)(F)F)c(Cl)cc1Cl)c1ccc(Cl)nc1` [Ia-237]: 90%.
Turning to `CN/C(=N/c1cc(SCC(F)(F)F)c(C)cc1F)c1ccc(Cl)s1` [Ia-218], the pest or weed control at 500 g/ha worked out at 90%.

The assay is the same for the next values; noted with them: Tetranychus urticae, foliar, 144 h, read-out: efficacy (spider mites killed).
In the case of `COc1cc(C)c(SCC(F)(F)F)cc1/N=C(/c1ccc(Cl)cc1)N1CCOCC1` [Ia-268, N-[(4-Chlorophenyl)(morpholin-4-yl)methylene]-2-methoxy-4-methyl-5-[(2,2,2-trifluoroethyl)sulfanyl]aniline], the pest or weed control at 500 g/ha was determined as 90%.

The same assay, now with this note: application rate 500 g/ha, after 6 days.
Regarding `Cc1cc(F)c(N=C(N(Cc2ccccn2)Cc2ccccn2)C(F)(F)F)cc1SCC(F)(F)F` [Ia-08], the “efficacy (spider mites killed)” value worked out at 100%.
